Results taken from patent US20250277012A1 (Protagonist Therapeutics, Inc., priority 2021, published 2025).
Read-outs that look alike come from different tables or passages of the source. Positions of bridges follow the written chain, without caps; N, C: chain ends. Non-standard residues stand in square brackets, D forms with d. Residues, ends and D or L forms follow the SMILES beside them. Groups on a side chain read outwards from the residue. *: point of attachment. C18 diacid = O=C(O)CCCCCCCCCCCCCCCCC(=O)*; dDip = N[C@@H](C(=O)O)C(c1ccccc1)c1ccccc1; Lys(Me3) = C[N+](C)(C)CCCC[C@H](N)C(=O)O; Dip = N[C@H](C(=O)O)C(c1ccccc1)c1ccccc1; Pro(3R-OH) = O=C(O)[C@H]1NCC[C@H]1O; Palmitoyl = CCCCCCCCCCCCCCCC(=O)*; β3hF = N[C@H](CC(=O)O)Cc1ccccc1; dPen = CC(C)(S)[C@@H](N)C(=O)O; NMeK = CN[C@@H](CCCCN)C(=O)O; Pen = CC(C)(S)[C@H](N)C(=O)O; Isovaleryl = CC(C)CC(=O)*; hCys = N[C@@H](CCS)C(=O)O; AEEA = NCCOCCOCC(=O)O; Ahx = NCCCCCC(=O)O

Molecular target: T1, ferroportin (Homo sapiens, UniProt Q9NP59)
T1 sequence (Q9NP59 1-571): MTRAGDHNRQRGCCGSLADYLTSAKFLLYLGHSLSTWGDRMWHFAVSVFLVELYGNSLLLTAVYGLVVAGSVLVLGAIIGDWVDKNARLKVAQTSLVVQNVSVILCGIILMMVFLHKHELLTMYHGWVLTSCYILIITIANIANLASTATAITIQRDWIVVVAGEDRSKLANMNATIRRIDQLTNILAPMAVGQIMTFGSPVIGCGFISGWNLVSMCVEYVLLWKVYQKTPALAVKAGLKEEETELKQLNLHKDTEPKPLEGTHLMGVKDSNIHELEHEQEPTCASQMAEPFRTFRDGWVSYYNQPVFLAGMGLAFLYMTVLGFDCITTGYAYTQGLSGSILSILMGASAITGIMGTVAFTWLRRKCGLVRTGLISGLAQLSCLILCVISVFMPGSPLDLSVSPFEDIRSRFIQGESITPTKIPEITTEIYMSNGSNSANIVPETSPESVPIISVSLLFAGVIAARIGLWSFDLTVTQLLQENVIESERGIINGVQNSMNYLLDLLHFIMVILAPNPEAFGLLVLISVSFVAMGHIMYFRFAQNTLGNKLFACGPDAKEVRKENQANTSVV
Test: FPN activity assay: ferroportin-GFP internalization/degradation in HEK293 cells
Type: cell-based
Parameters: expressed in transfected cells
Conditions: read-out: FPN IC50
Procedure: Following internalization, the ferroporin protein is degraded.
A retro inverse peptide is a peptide with a reversed sequence in all D amino acids. An example is that Hy-Glu-Thr-His-NH2 becomes Hy-DHis-DThr-DGlu-NH2. The EC50 of these reference compounds for ferroportin internalization/degradation was determined according to the FPN activity assay described above. These peptides served as control standards.

[1] = ferroportin-GFP HEK293 cells, at least 18 hours
[2] = Table 6E, ferroportin-GFP internalization/degradation, at least 18 hours incubation

| Structure (SMILES) | DC50 [1] [nM] | also measured |
| --- | --- | --- |
| CCCCCCCCCCCCCCCC(=O)NCCCCCC(=O)NCCCC[C@H](NC(=O)C[C@H](Cc1ccccc1)NC(=O)[C@H]1CSSC[C@H](NC(=O)CC(C)C)C(=O)N[C@@H]([C@@H](C)O)C(=O)N[C@@H](Cc2c[nH]cn2)C(=O)N[C@@H](C(c2ccccc2)c2ccccc2)C(=O)N2CCC[C@H]2C(=O)N[C@@H](C)C(=O)N[C@@H]([C@@H](C)CC)C(=O)N1)C(=O)N[C@H](CCCCN)C(N)=O [compound 106] (Isovaleryl-CTH[Dip]PAI[dC][β3hF]K([Ahx-Palmitoyl])[dK]-NH2; disulfide 1-8) | 100 to 500 |  |
| CC(C)CC(=O)N[C@@H](CCC(=O)O)C(=O)N[C@H](C(=O)N[C@@H](Cc1c[nH]cn1)C(=O)N[C@H](C(=O)N1CCC[C@H]1C(=O)N[C@H]1CSSC[C@@H](C(=O)N[C@@H](CCCC[N+](C)(C)C)C(=O)N[C@@H](C(N)=O)C(c2ccccc2)c2ccccc2)NC1=O)C(c1ccccc1)c1ccccc1)[C@@H](C)O [compound 140] (Isovaleryl-ETH[Dip]PCC[Lys(Me3)][dDip]-NH2; disulfide 6-7) |  | DC50 [2]: 10 to 100 nM |
| CCCCCCCCCCCCCCCC(=O)NCCCCCC(=O)NCCCC[C@H](NC(=O)[C@@H](NC(=O)[C@@H]1CCSSC[C@H](N)C(=O)N[C@@H](C(C)C)C(=O)N[C@@H](CCC(=O)O)C(=O)N[C@@H]([C@@H](C)O)C(=O)N[C@@H](Cc2c[nH]cn2)C(=O)N[C@@H](C(c2ccccc2)c2ccccc2)C(=O)N2CCC[C@H]2C(=O)N1)[C@@H](C)CC)C(=O)N[C@H](CC(N)=O)Cc1ccccc1 [Compd 17] (H-CVETH[Dip]P[hCys]IK([Ahx-Palmitoyl])[β3hF]-NH2; disulfide 1-8) | 100 to 500 |  |
| CCCCCCCCCCCCCCCC(=O)NCCCCCC(=O)NCCCC[C@H](NC(=O)[C@@H](NC(=O)[C@@H]1CSSC[C@H](NC(=O)CC(C)C)C(=O)N[C@@H](CCC(=O)O)C(=O)N[C@@H]([C@@H](C)O)C(=O)N[C@@H](Cc2c[nH]cn2)C(=O)N[C@@H](C(c2ccccc2)c2ccccc2)C(=O)N2CCC[C@H]2C(=O)N1)[C@@H](C)CC)C(=O)N[C@H](CC(N)=O)Cc1ccccc1 [Compd 10] (Isovaleryl-CETH[Dip]PCIK([Ahx-Palmitoyl])[β3hF]-NH2; disulfide 1-7) | 100 to 500 |  |
| CC(C)CC(=O)N[C@@H](CCC(=O)O)C(=O)N[C@H](C(=O)N[C@@H](Cc1c[nH]cn1)C(=O)N[C@H](C(=O)N1CCC[C@H]1C(=O)N[C@H]1CSSC[C@@H](C(=O)N[C@H](CCCCN)C(=O)N[C@H](CC(=O)N[C@@H](CCCCNC(=O)COCCOCCNC(=O)COCCOCCNC(=O)CCCCCNC(=O)CCCCCCCCCCCCCCCCC(=O)O)C(=O)N[C@H](CCCCN)C(N)=O)Cc2ccccc2)NC1=O)C(c1ccccc1)c1ccccc1)[C@@H](C)O [Compd 26] (Isovaleryl-ETH[Dip]PCC[dK][β3hF]K([AEEA-AEEA-Ahx-C18 diacid])[dK]-NH2; disulfide 6-7) | 10 to 100 |  |
| CCCCCCCCCCCCCCCC(=O)NCCCCCC(=O)NCCCC[C@H](NC(=O)C[C@H](Cc1ccccc1)NC(=O)[C@@H](CCCCN)NC(=O)[C@@H](NC(=O)[C@@H]1CSSC[C@H](NC(=O)[C@H](Cc2c[nH]cn2)NC(=O)[C@@H](NC(=O)[C@H](CCC(=O)O)NC(=O)CC(C)C)[C@@H](C)O)C(=O)N2CCC[C@H]2C(=O)N1)[C@@H](C)CC)C(=O)N[C@H](CCCCN)C(N)=O [Compd 3] (Isovaleryl-ETHCPCI[dK][β3hF]K([Ahx-Palmitoyl])[dK]-NH2; disulfide 4-6) | 10 to 100 |  |
| CCCCCCCCCCCCCCCC(=O)NCCCCCC(=O)NCCCC[C@H](NC(=O)C[C@H](Cc1ccccc1)NC(=O)[C@@H]1CSSC(C)(C)[C@@H](NC(=O)CC(C)C)C(=O)N[C@@H]([C@@H](C)O)C(=O)N[C@@H](Cc2c[nH]cn2)C(=O)N[C@@H](C(c2ccccc2)c2ccccc2)C(=O)N2CCC[C@H]2C(=O)N[C@@H](C)C(=O)N[C@@H]([C@@H](C)CC)C(=O)N1)C(=O)N[C@H](CCCCN)C(N)=O [compound 103] (Isovaleryl-[dPen]TH[Dip]PAIC[β3hF]K([Ahx-Palmitoyl])[dK]-NH2; disulfide 1-8) | 100 to 500 |  |
| CCCCCCCCCCCCCCCC(=O)NCCCCCC(=O)NCCCC[C@H](NC(=O)C[C@H](Cc1ccccc1)NC(=O)[C@@H](CCCCN)NC(=O)[C@@H](NC(=O)[C@H](C)NC(=O)[C@H]1CSSC[C@H](NC(=O)[C@H](CCC(=O)O)NC(=O)CC(C)C)C(=O)N[C@@H](Cc2c[nH]cn2)C(=O)N[C@@H](C(c2ccccc2)c2ccccc2)C(=O)N1)[C@@H](C)CC)C(=O)N[C@H](CCCCN)C(=O)N[C@@H](C)C(N)=O [Compd 46] (Isovaleryl-ECH[Dip][dC]AI[dK][β3hF]K([Ahx-Palmitoyl])[dK]A-NH2; disulfide 2-5) | 1 to 10 |  |
| CCCCCCCCCCCCCCCC(=O)NCCCCCC(=O)NCCCC[C@H](NC(=O)C[C@H](Cc1ccccc1)NC(=O)[C@@H]1CSSC[C@@H](NC(=O)CC(C)C)C(=O)N[C@@H]([C@@H](C)O)C(=O)N[C@@H](Cc2c[nH]cn2)C(=O)N[C@@H](C(c2ccccc2)c2ccccc2)C(=O)N2CCC[C@H]2C(=O)N[C@@H](C)C(=O)N[C@@H]([C@@H](C)CC)C(=O)N1)C(=O)N[C@H](CCCCN)C(N)=O [compound 107] (Isovaleryl-[dC]TH[Dip]PAIC[β3hF]K([Ahx-Palmitoyl])[dK]-NH2; disulfide 1-8) | 10 to 100 |  |
| CCCCCCCCCCCCCCCC(=O)NCC[N+](C)(C)CC(=O)NCCCC[C@H](NC(=O)[C@@H]1CSSC[C@H](NC(=O)[C@H](CCC(=O)O)NC(=O)CC(C)C)C(=O)N[C@@H](Cc2c[nH]cn2)C(=O)N[C@@H](C(c2ccccc2)c2ccccc2)C(=O)N1)C(=O)NCCCCC [compound 124] |  | DC50 (Table 6D, ferroportin-GFP internalization/degradation, at least 18 hours incubation): 100 to 500 nM |
| CCCCCCCCCCCCCCCC(=O)NCCCCCC(=O)NCCCC[C@H](NC(=O)[C@@H](NC(=O)[C@@H]1CSSCC[C@H](NC(C)=O)C(=O)N[C@@H](CCC(=O)O)C(=O)N[C@@H]([C@@H](C)O)C(=O)N[C@@H](Cc2c[nH]cn2)C(=O)N[C@@H](C(c2ccccc2)c2ccccc2)C(=O)N2CCC[C@H]2C(=O)N1)[C@@H](C)CC)C(=O)N[C@H](CC(N)=O)Cc1ccccc1 [Compd 12] (Ac-[hCys]ETH[Dip]PCIK([Ahx-Palmitoyl])[β3hF]-NH2; disulfide 1-7) | 100 to 500 |  |
| CCCCCCCCCCCCCCCC(=O)NCCCCCC(=O)NCCCC[C@H](NC(=O)C[C@H](Cc1ccccc1)NC(=O)[C@@H](CCCCN)NC(=O)[C@@H](NC(=O)[C@@H]1CSSC[C@H](NC(=O)[C@@H](NC(=O)[C@H](CCC(=O)O)NC(=O)CC(C)C)[C@@H](C)O)C(=O)N[C@@H](C(c2ccccc2)c2ccccc2)C(=O)N2CCC[C@H]2C(=O)N1)[C@@H](C)CC)C(=O)N[C@H](CCCCN)C(N)=O [Compd ID 2, Isovaleric Acid-E-T-[Cys]-[Dpa]-P-[Cys]-I-[(D)Lys]-[bhPhe]-[Lys(Ahx_Palm)]-[(D)Lys]-NH2] (Isovaleryl-ETC[Dip]PCI[dK][β3hF]K([Ahx-Palmitoyl])[dK]-NH2; disulfide 3-6) | 100 to 500 |  |
| CCCCCCCCCCCCCCCC(=O)NCCCCCC(=O)NCCCC[C@H](NC(=O)[C@@H](NC(=O)[C@@H]1CCSSCC[C@H](N)C(=O)N[C@@H](C(C)C)C(=O)N[C@@H](CCC(=O)O)C(=O)N[C@@H]([C@@H](C)O)C(=O)N[C@@H](Cc2c[nH]cn2)C(=O)N[C@@H](C(c2ccccc2)c2ccccc2)C(=O)N2CCC[C@H]2C(=O)N1)[C@@H](C)CC)C(=O)N[C@H](CC(N)=O)Cc1ccccc1 [Compd 16] (H-[hCys]VETH[Dip]P[hCys]IK([Ahx-Palmitoyl])[β3hF]-NH2; disulfide 1-8) | > 500 |  |
| CCCCCCCCCCCCCCCC(=O)NCCCCCC(=O)NCCCC[C@@H](C(=O)N[C@H](C(=O)N[C@H](CCCCN)C(N)=O)C(c1ccccc1)c1ccccc1)N(C)C(=O)[C@@H]1CSSC[C@H](NC(=O)[C@@H]2CCCN2C(=O)[C@@H](NC(=O)[C@H](Cc2c[nH]cn2)NC(=O)[C@@H]2[C@H](O)CCN2C(=O)[C@H](CCC(=O)O)NC(=O)CC(C)C)C(c2ccccc2)c2ccccc2)C(=O)N1 [compound 174] (Isovaleryl-E[Pro(3R-OH)]H[Dip]PCC[NMeK]([Ahx-Palmitoyl])[Dip][dK]-NH2; disulfide 6-7) |  | DC50 [2]: 10 to 100 nM |
| CCCCCCCCCCCCCCCC(=O)NCCCCCC(=O)NCCCC[C@H](NC(=O)[C@@H](NC(=O)[C@@H]1CCSSCC[C@H](NC(C)=O)C(=O)N[C@@H](CCC(=O)O)C(=O)N[C@@H]([C@@H](C)O)C(=O)N[C@@H](Cc2c[nH]cn2)C(=O)N[C@@H](C(c2ccccc2)c2ccccc2)C(=O)N2CCC[C@H]2C(=O)N1)[C@@H](C)CC)C(=O)N[C@H](CC(N)=O)Cc1ccccc1 [Compd 14] (Ac-[hCys]ETH[Dip]P[hCys]IK([Ahx-Palmitoyl])[β3hF]-NH2; disulfide 1-7) | 100 to 500 |  |
| CCCCCCCCCCCCCCCC(=O)NCCCCCC(=O)NCCCC[C@H](NC(=O)C[C@H](Cc1ccccc1)NC(=O)[C@H]1NC(=O)[C@H]([C@@H](C)CC)NC(=O)[C@H](C)NC(=O)[C@@H]2CCCN2C(=O)[C@H](C(c2ccccc2)c2ccccc2)NC(=O)[C@H](Cc2c[nH]cn2)NC(=O)[C@H]([C@@H](C)O)NC(=O)[C@@H](NC(=O)CC(C)C)CCSSC1(C)C)C(=O)N[C@H](CCCCN)C(N)=O [compound 109] (Isovaleryl-[hCys]TH[Dip]PAI[Pen][β3hF]K([Ahx-Palmitoyl])[dK]-NH2; disulfide 1-8) | 10 to 100 |  |
